The results in this text go back to patent US20250197407A1 (Jazz Pharmaceuticals Ireland Limited, priority 2022, published 2025).

Structures are written as SMILES.

SOS1/KRAS WT, sequence (Q07889 564-1049): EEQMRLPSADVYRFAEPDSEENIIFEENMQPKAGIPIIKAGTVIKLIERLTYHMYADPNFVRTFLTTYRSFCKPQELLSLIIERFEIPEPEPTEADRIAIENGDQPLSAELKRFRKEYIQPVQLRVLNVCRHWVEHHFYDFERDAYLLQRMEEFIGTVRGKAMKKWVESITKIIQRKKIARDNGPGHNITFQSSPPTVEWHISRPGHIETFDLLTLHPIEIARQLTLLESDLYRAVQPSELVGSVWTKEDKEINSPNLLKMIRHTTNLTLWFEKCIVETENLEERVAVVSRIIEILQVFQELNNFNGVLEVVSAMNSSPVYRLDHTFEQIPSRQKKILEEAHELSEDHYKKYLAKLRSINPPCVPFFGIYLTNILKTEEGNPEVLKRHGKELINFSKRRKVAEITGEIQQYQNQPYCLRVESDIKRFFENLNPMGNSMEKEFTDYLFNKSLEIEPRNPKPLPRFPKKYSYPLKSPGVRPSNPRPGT

In the assay the target is SOS1/KRAS WT (Homo sapiens (Human), UniProt Q07889). The assay can be described thus: SOS1/KRAS WT HTRF binding assay (FRET-based protein-protein interaction). The following applies: inhibition of His6-SOS1 (aa564-1049, 40 nM) binding to GST-KRAS-WT (aa1-188, 40 nM); at least two independent replicates; read-out: SOS1/KRAS WT HTRF Binding assay pIC50 (converted). From the text:
The capacity of compounds to inhibit SOS1 binding to KRAS-WT (wild-type) was quantified using a FRET-based protein-protein interaction assay. The assay is based on the transfer of energy between two fluorophores, a donor and an acceptor, when in close proximity. In this instance, the donor is a Europium-conjugated α-GST antibody that binds to GST-tagged KRAS-WT, and the acceptor is an XL665-conjugated α-His 6 antibody that binds to His 6-tagged SOS1. Binding of SOS1 to KRAS-WT results in an increased fluorescent signal at emission wavelength of 665 nm which can be detected on the EnVision plate reader. Compounds that inhibit binding will reduce the 665 nm signal emitted. Recombinant KRAS-WT protein (40 nM; Human KRAS, aa1-188 recombinant protein with N-terminal GST-tag) and SOS1 protein (40 nM; Human SOS1 exchange domain, aa564-1049 with N-terminal 6His-tag) were mixed together in assay buffer (5 mM HEPES pH7.3, 150 mM NaCl, 10 mM EDTA, 5 mM MgCl2, 0.05% BSA, 0.0025% NP-40, 1 mM DTT and 100 mM KF) and incubated at room temperature with a dose response of compound in a 384-well low volume white plate and a final volume of 5 ul. After a 60 minute incubation, 5 ul of 4 nM anti-GST-Eu(K) (Cisbio, France) combined with 20 nM anti-6His-XL665 (Cisbio, France), diluted in assay buffer, was added to the plate. Following a further 4 hr incubation at room temperature, time-resolved fluorescence was measured on the EnVision plate reader. DMSO (0.05%) and 10 μM reference compound were used to generate the Max and Min assay signals, respectively. Data was analysed using a four-parameter logistic model to calculate IC50 values, with at least two independent replicates performed for each compound.
Data was analyzed using a four-parameter logistic model to calculate IC50 values, with at least two independent replicates performed for each compound.
Regarding `CCOC1(C)C(=O)N(C2CC2)c2cc3c(N[C@H](C)c4cccc(C(F)(F)CO)c4F)nnc(C)c3cc21` (stereo partly drawn) [Compound 164, 1-cyclopropyl-3-ethoxy-3,5-dimethyl-8-[[(1R)-1-[3-(1,1-difluoro-2-hydroxy-ethyl)-2-fluoro-phenyl]ethyl]amino]pyrrolo[2,3-g]phthalazin-2-one], the IC50 was 0.0115 µM.
For the compound `CCN1C(=O)C(C)(OC)c2cc3c(C)nnc(N[C@H](C)c4cccc(C(F)(F)CO)c4F)c3cc21` (stereo partly drawn) [Compound 172, 1-ethyl-3-methoxy-3,5-dimethyl-8-[[(1R)-1-[3-(1,1-difluoro-2-hydroxy-ethyl)-2-fluoro-phenyl]ethyl]amino]pyrrolo[2,3-g]phthalazin-2-one], the IC50 is 0.00977 µM.
As to `Cc1c(C#N)cccc1[C@@H](C)Nc1nnc(C)c2cc3c(cc12)n(C)c(=O)n3C` [Compound 39, 2-methyl-3-[(1R)-1-[(1,3,8-trimethyl-2-oxo-imidazo[4,5-g]phthalazin-5-yl)amino]ethyl]benzonitrile], the IC50 is 0.0447 µM.
Take `Cc1c([C@@H](C)Nc2nnc(C)c3cc4c(cc23)n(C2CC2)c(=O)n4C)cccc1C(F)(F)CO` [Compound 68, 3-cyclopropyl-1,8-dimethyl-5-[[(1R)-1-[3-(1,1-difluoro-2-hydroxy-ethyl)-2-methyl-phenyl]ethyl]amino]imidazo[4,5-g]phthalazin-2-one]: the IC50 was 0.00955 µM.
The result for `CCC1(OC)C(=O)N(C)c2cc3c(N[C@H](C)c4cccc(C(F)(F)CO)c4)nnc(C)c3cc21` (stereo partly drawn) [Compound 206, 3-ethyl-3-methoxy-1,5-dimethyl-8-[[(1R)-1-[3-(1,1-difluoro-2-hydroxy-ethyl)phenyl]ethyl]amino]pyrrolo [2,3-g]phthalazin-2-one] reads 0.0145 µM; that for `Cc1nnc(N[C@H](C)c2cccc(C(F)(F)F)c2)c2cc3c(cc12)n(C)c(=O)n3CC(F)(F)F` [Compound 11, 1,8-dimethyl-5-[[(1R)-1-[3-(trifluoromethyl)phenyl]ethyl]amino]-3-(2,2,2-trifluoroethyl)imidazo[4,5-g]phthalazin-2-one], 0.012 µM.
With `COC1(C)C(=O)N(C)c2cc3c(N[C@H](C)c4cccc(C(F)(F)CO)c4)nnc(C)c3cc21` (stereo partly drawn) [Compound 101, 3-methoxy-1,3,5-trimethyl-8-[[(1R)-1-[3-(1,1-difluoro-2-hydroxy-ethyl)phenyl]ethyl]amino]pyrrolo [2,3-g]phthalazin-2-one], the IC50 was 0.01 µM.
The figure for `CCOC1(C)C(=O)N(C2CC2)c2cc3c(N[C@H](C)c4cccc(C(F)(F)CO)c4C)nnc(C)c3cc21` (stereo partly drawn) [Compound 167, 1-cyclopropyl-3-ethoxy-3,5-dimethyl-8-[[(1R)-1-[3-(1,1-difluoro-2-hydroxy-ethyl)-2-methyl-phenyl]ethyl]amino]pyrrolo[2,3-g]phthalazin-2-one] is 0.0126 µM; for `CCc1nnc(N[C@H](C)c2cccc(C(F)(F)C(C)(C)O)c2F)c2cc3c(cc12)C(C)(OC)C(=O)N3C` (stereo partly drawn) [Compound 200, 5-ethyl-3-methoxy-1,3-dimethyl-8-[[(1R)-1-[3-(1,1-difluoro-2-hydroxy-2-methyl-propyl)-2-fluoro-phenyl]ethyl]amino]pyrrolo[2,3-g]phthalazin-2-one] it is 0.0132 µM.
In the case of `COCC(F)(F)c1cccc([C@@H](C)Nc2nnc(C)c3cc4c(cc23)n(C)c(=O)n4C)c1F` [Compound 36, 5-[[(1R)-1-[3-(1,1-difluoro-2-methoxy-ethyl)-2-fluoro-phenyl]ethyl]amino]-1,3,8-trimethyl-imidazo[4,5-g]phthalazin-2-one], the IC50 was 0.012 µM.
With `CCC1(OC)C(=O)N(C)c2cc3c(C)nnc(N[C@H](C)c4cccc(C(F)(F)CO)c4C)c3cc21` (stereo partly drawn) [Compound 198, 5-[[(1R)-1-[3-(1,1-difluoro-2-hydroxy-ethyl)-2-methyl-phenyl]ethyl]amino]-3-ethyl-3-methoxy-1,8-dimethyl-pyrrolo[2,3-g]phthalazin-2-one], the IC50 is 0.0195 µM.
The result for `COCC1(C)C(=O)N(C)c2cc3c(N[C@H](C)c4cccc(C(F)(F)CO)c4C)nnc(C)c3cc21` (stereo partly drawn) [Compound 105, 8-[[(1R)-1-[3-(1,1-difluoro-2-hydroxy-ethyl)-2-methyl-phenyl]ethyl]amino]-3-(methoxymethyl)-1,3,5-trimethyl-pyrrolo[3,2-g]phthalazin-2-one] reads 0.0107 µM; that for `Cc1c([C@@H](C)Nc2nnc(C)c3cc4c(cc23)N(C2CC2)C(=O)C42CCOCC2)cccc1C(F)(F)CO` [Compound 119, 1-cyclopropyl-5-methyl-8-[[(1R)-1-[3-(1,1-difluoro-2-hydroxy-ethyl)-2-methyl-phenyl]ethyl]amino]spiro[pyrrolo [2,3-g]phthalazine-3,4′-tetrahydropyran]-2-one], 0.00741 µM; that for `CCOC1(C)C(=O)N(C2CC2)c2cc3c(N[C@H](C)c4cccc(C(F)(F)C(C)(C)O)c4)nnc(C)c3cc21` (stereo partly drawn) [Compound 165, 1-cyclopropyl-3-ethoxy-3,5-dimethyl-8-[[(1R)-1-[3-(1,1-difluoro-2-hydroxy-2-methyl-propyl)phenyl]ethyl]amino]pyrrolo [2,3-g]phthalazin-2-one], 0.01 µM.
As to `Cc1c([C@@H](C)Nc2nnc(C)c3cc4c(cc23)n(C2CC2)c(=O)n4C)cccc1C(F)(F)F` [Compound 58], the IC50 is 0.00661 µM.
The figure for `Cc1nnc(N[C@H](C)c2cccc(C(F)(F)C(C)(C)O)c2F)c2cc3c(cc12)C1(CCCC1)C(=O)N3C` [Compound 194, 1′,5′-dimethyl-8′-[[(1R)-1-[3-(1,1-difluoro-2-hydroxy-2-methyl-propyl)-2-fluoro-phenyl]ethyl]amino]spiro [cyclopentane-1,3′-pyrrolo[2,3-g]phthalazine]-2′-one] is 0.00851 µM; for `Cc1nnc(N[C@H](C)c2cccc(C(F)F)c2)c2cc3c(cc12)n(C)c(=O)n3C` [Compound 5, 5-[[(1R)-1-[3-(difluoromethyl)phenyl]ethyl]amino]-1,3,8-trimethyl-imidazo[4,5-g]phthalazin-2-one] it is 0.0398 µM; for `Cc1nnc(N[C@H](C)c2cccc(C(F)(F)F)c2)c2cc3c(cc12)n(C)c(=O)n3CC#N` [Compound 148, 2-[1,8-dimethyl-2-oxo-5-[[(1R)-1-[3-(trifluoromethyl)phenyl]ethyl]amino]imidazo[4,5-g]phthalazin-3-yl]acetonitrile] it is 0.0214 µM.
On to `Cc1c(-c2cncs2)cccc1[C@@H](C)Nc1nnc(C)c2cc3c(cc12)n(C)c(=O)n3C` [Compound 159, 1,3,8-trimethyl-5-[[(1R)-1-(2-methyl-3-thiazol-5-yl-phenyl)ethyl]amino]imidazo[4,5-g]phthalazin-2-one], for which the IC50 is 0.0178 µM.
As to `Cc1nnc(N[C@H](C)c2cccc(C(F)(F)CO)c2F)c2cc3c(cc12)C1(CCOCC1)C(=O)N3C1CC1` [Compound 114, 1-cyclopropyl-5-methyl-8-[[(1R)-1-[3-(1,1-difluoro-2-hydroxy-ethyl)-2-fluoro-phenyl]ethyl]amino]spiro[pyrrolo [2,3-g]phthalazine-3,4′-tetrahydropyran]-2-one], the IC50 was 0.00912 µM.
In the case of `CCC1(OC)C(=O)N(C)c2cc3c(N[C@H](C)c4cccc(C(F)(F)CO)c4F)nnc(C)c3cc21` (stereo partly drawn) [Compound 207, 3-ethyl-3-methoxy-1,5-dimethyl-8-[[(1R)-1-[3-(1,1-difluoro-2-hydroxy-ethyl)-2-fluoro-phenyl]ethyl]amino]pyrrolo[2,3-g]phthalazin-2-one], the IC50 is 0.00851 µM.
As for `Cc1nnc(N[C@H](C)c2cc(F)cc(C(F)(F)CO)c2)c2cc3c(cc12)n(C)c(=O)n3C` [Compound 51, 5-[[(1R)-1-[3-(1,1-difluoro-2-hydroxy-ethyl)-5-fluoro-phenyl]ethyl]amino]-1,3,8-trimethyl-imidazo[4,5-g]phthalazin-2-one], the IC50 was 0.0234 µM.
Take `Cc1nnc(N[C@H](C)c2cccc3c(F)cn(C)c23)c2cc3c(cc12)n(C)c(=O)n3C` [Compound 61, 1,3,8-trimethyl-5-[[(1R)-1-(3-fluoro-1-methyl-indol-7-yl)ethyl]amino]imidazo[4,5-g]phthalazin-2-one]: the IC50 is 0.1 µM.
Turning to `Cc1nnc(N[C@H](C)c2cccc(C(F)(F)F)c2)c2cc3c(cc12)n(C)c(=O)n3C1CCCC1` [Compound 2, 3-cyclopentyl-1,8-dimethyl-5-[[(1R)-1-[3-(trifluoromethyl)phenyl]ethyl]amino] imidazo[4,5-g]phthalazin-2-one], the IC50 was 0.0132 µM.
On to `COC1(C)C(=O)N(C2CC2)c2cc3c(N[C@H](C)c4cccc(C(F)(F)CO)c4)nnc(C)c3cc21` (stereo partly drawn) [Compound 142, 1-cyclopropyl-3-methoxy-3,5-dimethyl-8-[[(1R)-1-[3-(1,1-difluoro-2-hydroxy-ethyl)phenyl]ethyl]amino]pyrrolo [2,3-g]phthalazin-2-one], for which the IC50 was 0.0129 µM.
